Legend:
[1] = molecular target: T1, human α2-GABAA receptor (α2-GABAAR-HEK293 cells) (Homo sapiens, UniProt P18507+P47869); test: Whole-cell patch-clamp electrophysiology, positive allosteric modulatory activity on α2-GABAA receptor; format: cell-based; conditions: read-out: α2-GABAA positive allosteric modulatory activity
T1 construct: expressed in transfected cells
Excerpt: (§1) α subunit, β subunit, and γ subunit are essential for the formation of a complete and functional GABAA receptor. In this example of the present disclosure, HEK293 cells stably expressing the human α1-GABAA receptor (α1-GABAAR) and α2-GABAA receptor (α2-GABAAR) were constructed and separately selected using the lipofection method (Felgner, P. L., et al. Proceedings of the National Academy of Sciences, 1987, 84: 7413-7417). The α1-GABAAR-HEK293 cell model simultaneously expressed the α1 subunit (for protein sequence, see GenBank accession No.: NM_000806.5), the […] (for protein sequence, see GenBank accession No.: NM_000814.5), and the […] (for protein sequence, see GenBank accession No.: NM_000816.3). The α2-GABAAR-HEK293 cell model simultaneously expressed the α2 subunit (for protein sequence, see GenBank accession No.: NM_000807.4), the β3 subunit (for protein sequence, see GenBank accession No.: NM_000814.5), and the γ2 subunit (for protein sequence, see GenBank accession No.: NM_000816.3).
(§2) The above cell lines were subcultured. The α2-GABAAR-HEK293 cells were expanded for testing the affinity of compounds to the benzodiazepine (BZD) site of the GABAA receptor. During the passage process, some of the α1-GABAAR-HEK293 cells and α2-GABAAR-HEK293 cells were suspended and plated on a slide pre-treated with Poly-D-Lysine for electrophysiological testing (method referenced from patent CN107344936A, paragraph 0586).
(§3) The positive regulatory activity of the test drugs on the α1-GABAA receptor and the α2-GABAA receptor was detected by the electrophysiological method. The specific method was as follows:
(§4) Compound concentration setting: The final concentration of the compounds used for screening was 100 nM. For cell lines expressing the α1-GABAA receptor, the concentration of GABA was 0.05 to 0.07 μM (approximately EC2-4). For cell lines expressing the α2-GABAA receptor, the concentration of GABA was 0.10 to 0.11 μM (approximately EC7-8). Electrophysiological testing was performed using the whole-cell patch-clamp technique, which can refer to the method reported in the literature (Nickolls, S. A., et al. British Journal of Pharmacology, 2018, 175: 708-725). The composition of the extracellular solution (ECS) for electrophysiology was as follows: 150 mM NaCl, 5 mM KCl, 2.5 mM CaCl2, 1 mM MgCl2, 10 mM HEPES, and 10 mM glucose (pH 7.4). The formulation of the intracellular solution (ICS) for electrophysiology was as follows: 140 mM CsCl, 11 mM EGTA, 10 mM HEPES, 2 mM CaCl2, 1 mM MgCl2, 4 mM MgATP, and 2 mM TEA (pH 7.3). GABA (γ-aminobutyric acid) powder was prepared into a mother liquor with pure water, which was then diluted in ECS. The compound was first prepared into a 4 mM mother liquor with dimethyl sulfoxide, which was then gradually diluted in the corresponding concentration of GABA-ECS. The solutions were freshly prepared prior to electrophysiological testing.
(§5) Electrophysiological signal acquisition was performed using an EPC 10 amplifier and PatchMaster software (HEKA) or an Axon 700B amplifier and Clampex software (AXON). The recording electrode was made through a drawing process using borosilicate glass, with an electrode resistance of 4 to 6 MΩ. Extracellular administration was performed using the ALA-VC-8PG™ system. A single, independently growing cell was selected. After the glass electrode formed a good seal with the cell, the membrane was ruptured to form the whole-cell configuration. The cell membrane potential was clamped at −60 mV and recorded in Gap-free mode. During the test, the extracellular solution was first applied extracellularly for approximately 20 seconds. After the baseline (Iprebaseline) stabilized, the extracellular solution was switched to GABA-ECS. At this point, the current induced by GABA (Igaba) could be detected. After approximately 10 to 20 seconds, when the current stabilized, the extracellular solution was switched to a mixture of the compound and GABA-ECS. […]

[2] = molecular target: T2, human α1-GABAA receptor (α1-GABAAR-HEK293 cells) (Homo sapiens, UniProt P14867+P18507); test: Whole-cell patch-clamp electrophysiology, positive allosteric modulatory activity on α1-GABAA receptor; format: cell-based; conditions: read-out: α1-GABAA positive allosteric modulatory activity
T2 construct: expressed in transfected cells
Excerpt: as §1, §2, §3, §4, §5

[3] = molecular target: T3, human α2-GABAA receptor (BZD site, membrane protein of HEK293 cells) (Homo sapiens, UniProt P18507+P47869); test: Radioligand competitive binding assay (3H-flunitrazepam) at the BZD site of the α2-GABAA receptor; conditions: competition with 1 nM 3H-flunitrazepam; Ki calculated from IC50; read-out: α2 Ki
T3 construct: expressed in transfected cells
Excerpt: as §1, §2
The affinity of the compounds for the α2-GABAA receptor was determined by competing for the binding of ^3H-flunitrazepam (isotope ^3H-labelled flunitrazepam) to the BZD site on the membrane protein of HEK293 cells stably expressing the human α2-GABAAR.
Membrane preparation: Cells were suspended in 50 mM Tris-HCl buffer (pH=7.4), homogenized 10 times for 20 seconds with a homogenizer on ice, and centrifuged at 1000 g for 10 minutes at 4° C. The supernatant was taken, and the above steps were repeated. The supernatant was centrifuged at 4° C. (33800 g; Thermo, rotor: A27-8×50) for 60 minutes. The precipitate was resuspended in Tris buffer (50 mM Tris-HCl, 10 mM MgCl2, 0.5 mM EDTA, and 10% glycerol). The protein content was determined (BCA (bicinchoninic acid) protein quantification assay based on copper ion reduction, with a BCA kit purchased from Pierce (Annoron (Beijing) Biotechnology Co., Ltd.)), and 1 mL aliquots were prepared and stored at −80° C.
Radioligand competitive binding assay: This assay was performed in a 200 μL system (96-well plate) containing 100 μL of cell membrane. The concentration of ^3H-flunitrazepam was 1 nM, and the concentrations of the test compounds were in the range of […]. Flumazenil was used as a control. 1 μL of 2 mM flumazenil (final […]) was added to each low signal control (low control, LC) well, and 1 μL of dimethyl sulfoxide was added to each high signal control (high control, HC) well. The final concentration of target membrane protein was […]. All sample stock solutions of test compounds were 10 mM dimethyl sulfoxide solutions. All the samples were diluted to a concentration of 0.2 mM with dimethyl sulfoxide, and then subjected to a 4-fold serial dilution for a total of 8 working concentration gradients. The 96-well plate was sealed with a sealing membrane and then incubated on a shaker at room temperature for 1 hour. Meanwhile, a GF/C filter plate was soaked in plate soaking buffer (0.3% PEI (polyethyleneimine, purchased from Sigma-Aldrich, model: P314), stored at 4° C.) for at least 0.5 hours. After the binding incubation was completed, the cells were harvested onto the GF/C filter plate using a cell harvester and washed four times with plate washing buffer (50 mM Tris-HCl, pH 7.4, stored at 4° C.). After drying in an oven at 50° C. for 1 hour, the dried GF/C filter plate was bottom-sealed. The residual radioactivity on the filter membrane was detected by liquid scintillation counting.

| Compound | activation at 0.1 µM [1] [%] | activation at 0.1 µM [2] [%] | Ki [3] [nM] |
| --- | --- | --- | --- |
| CCn1cnc2c(-c3ccc(F)c(-c4cc5oc(C6CCOCC6)nc5cc4OC)c3)cnnc21 [Example 93, 6-(5-(7-Ethyl-7H-imidazo[4,5-c]pyridazin-4-yl)-2-fluorophenyl)-5-methoxy-2-(tetrahydro-2H-pyran-4-yl)benzo[d]oxazole] | 115 | 79 | 8.32 |
| CCn1cnc2c(-c3ccc(F)c(-c4cc5ccnnc5cc4OC)c3)cnnc21 [Example 112, 6-(5-(7-Ethyl-7H-imidazo[4,5-c]pyridazin-4-yl)-2-fluorophenyl)-7-methoxycinnoline] | 171 | 64 | 7.62 |
| CCn1cnc2c(-c3ccc(F)c(-c4cc5cn(C6CC6)nc5cc4OC)c3)cnnc21 [Example 114, 4-(3-(2-Cyclopropyl-6-methoxy-2H-indazol-5-yl)-4-fluorophenyl)-7-ethyl-7H-imidazo[4,5-c]pyridazine] | 107 | 68 | 9.97 |
| CCn1cnc2c(-c3ccc(F)c(-c4ccc5c(ncn5C5COC5)c4OC)c3)cnnc21 [Example 115, 7-Ethyl-4-(4-fluoro-3-(4-methoxy-1-(oxetan-3-yl)-1H-benzo[d]imidazol-5-yl)phenyl)-7H-imidazo[4,5-c]pyridazine] | 85 | -25 | 16.4 |
| CCn1cnc2c(-c3ccc(F)c(-c4cc5cn(C6CN(C)C6)nc5cc4OC)c3)cnnc21 [Example 117] | 86 | 37 | 15.2 |
| CCn1cnc2c(OC)c(-c3cc(-c4cnnc5c4ncn5CC)ccc3F)ccc21 [Example 119, 7-Ethyl-4-(3-(1-ethyl-4-methoxy-1H-benzo[d]imidazol-5-yl)-4-fluorophenyl)-7H-imidazo[4,5-c]pyridazine] | 86 | -10 | 15.4 |
| CCn1cnc2c(-c3ccc(F)c(-c4cc5ccncc5cc4OC)c3)cnnc21 [Example 123, 6-(5-(7-Ethyl-7H-imidazo[4,5-c]pyridazin-4-yl)-2-fluorophenyl)-7-methoxyisoquinoline] | 95 | 33 | 7.7 |
| CCn1cnc2c(-c3ccc(F)c(-c4ccc5c(ncn5C)c4OC)c3)cnnc21 [Example 126, 7-Ethyl-4-(4-fluoro-3-(4-methoxy-1-methyl-1H-benzo[d]imidazol-5-yl)phenyl)-7H-imidazo[4,5-c]pyridazine] | 90 | -35 | 5.22 |
| CCn1cnc2c(-c3ccc(F)c(-c4cc5oc(C)nc5cc4OC)c3)cnnc21 [Example 133, 6-(5-(7-Ethyl-7H-imidazo[4,5-c]pyridazin-4-yl)-2-fluorophenyl)-5-methoxy-2-methylbenzo[d]oxazole] | 130 | 16 | 12.7 |

Stronger by Ki [3], values ahead:

| activation at 0.1 µM [1] [%] | activation at 0.1 µM [2] [%] | Ki [3] [nM] | Compound |
| --- | --- | --- | --- |
| 106 | -2 | 4.31 | CCn1cnc2c(-c3ccc(F)c(-c4cc5cn(C6CCN(C)CC6)nc5cc4OC)c3)cnnc21 [Example 99, 7-Ethyl-4-(4-fluoro-3-(6-methoxy-2-(1-methylpiperidin-4-yl)-2H-indazol-5-yl)phenyl)-7H-imidazo[4,5-c]pyridazine] |
| 157 | 56 | 4.46 | CCn1cnc2c(-c3ccc(F)c(-c4cc5cn(-c6ccccc6)nc5cc4OC)c3)cnnc21 [Example 101, 7-Ethyl-4-(4-fluoro-3-(6-methoxy-2-phenyl-2H-indazol-5-yl)phenyl)-7H-imidazo[4,5-c]pyridazine] |
| 102 | 64 | 3.35 | CCn1cnc2c(-c3ccc(F)c(-c4cc5cn(C(F)F)nc5cc4OC)c3)cnnc21 [Example 111, 4-(3-(2-(Difluoromethyl)-6-methoxy-2H-indazol-5-yl)-4-fluorophenyl)-7-ethyl-7H-imidazo[4,5-c]pyridazine] |
| 90 | -6 | 3.02 | CCn1cnc2c(-c3ccc(F)c(-c4cc5ccn(C)c(=O)c5cc4OC)c3)cnnc21 [Example 121, 6-(5-(7-Ethyl-7H-imidazo[4,5-c]pyridazin-4-yl)-2-fluorophenyl)-7-methoxy-2-methylisoquinolin-1(2H)-one] |
| 125 | 39 | 4.76 | CCn1cnc2c(-c3ccc(F)c(-c4cc5cn(C6CCOC6)nc5cc4OC)c3)cnnc21 (stereo not drawn) [Example 122, 7-Ethyl-4-(4-fluoro-3-(6-methoxy-2-(tetrahydrofuran-3-yl)-2H-indazol-5-yl)phenyl)-7H-imidazo[4,5-c]pyridazine] |
| 128 | 56 | 3.23 | CCn1cnc2c(-c3ccc(F)c(-c4cc5cn(C6COC6)nc5cc4OC)c3)cnnc21 [Example 129, 7-Ethyl-4-(4-fluoro-3-(6-methoxy-2-(oxetan-3-yl)-2H-indazol-5-yl)phenyl)-7H-imidazo[4,5-c]pyridazine] |
| 139 | 36 | 4.8 | CCn1cc2cc(-c3cc(-c4cnnc5c4ncn5CC)ccc3F)c(OC)cc2n1 [Example 130, 7-Ethyl-4-(3-(2-ethyl-6-methoxy-2H-indazol-5-yl)-4-fluorophenyl)-7H-imidazo[4,5-c]pyridazine] |
